Reference: patent publication US10974081B2, “Treatment and prevention of sleep disorders” (Purdue Pharma L.P., priority 2016, dated 2021)
Read-outs that look alike come from different tables or passages of the source.

How the values were obtained:
[1] = In vivo clearance of radiolabeled Compound (1D), rats; details: within 48 hours of oral dosing
[2] = system: rats
[3] = system: human liver microsomes; test: In vitro metabolic stability, human liver microsomes; format: in vitro ADME; details: 2 μM, % remaining after 30 minutes at 37° C.
Experimental: The comparative in vitro metabolic stabilities of Compounds (1F), […], and W-212393 were determined upon exposure to human liver microsomes or rat liver microsomes according to a procedure disclosed in, e.g., Example 14 of U.S. Pat. No. 9,290,488, which is hereby incorporated by reference in its entirety. Liver microsomes from Crj;CD rats or humans were incubated with 2 μM of each tested compound; thereafter, the supernatant was analyzed by HPLC-MS for the concentration of the tested compound present. Human liver microsomes, pooled, 20 mg/mL, were obtained from […] #H0610). […] Alternatively and if desired, rat liver microsomes can be obtained commercially from, e.g., XenoTech (Sprague-Dawley rat liver microsomes, pooled, 20 mg/mL, cat #R1000). β-NADPH (β-nicotinamide adenine dinucleotide 2'-phosphate reduced tetrasodium salt hydrate) was obtained from Oriental Yeast Co., Ltd. (Tokyo, Japan). Each tested compound, present at an initial concentration of 2 μM, was incubated at 37° C. in the presence of 0.5 mg/mL of either human microsomes or rat microsomes in suspension in 50 mM Tris-HCl buffer (7.4 pH), 150 mM KCl, 10 mM MgCl2, and 1 mM β-NADPH. Incubation was initiated upon the addition of a 100-fold concentrated solution of the tested compound to one of the microsome preparations. Incubation was terminated by addition of a two-fold volume of a 1/1 mixture of acetonitrile/methanol after either 0 minutes or 30 minutes of incubation at 37° C. Thereafter, proteins and other macromolecules from the microsome preparation were removed by centrifugation. All incubations were conducted in duplicate. […] The HPLC system consisted of a Waters 2795 separations module (Waters Corp., Milford, Mass.) equipped with an inline degasser, temperature controlled auto-sampler, and column oven. The analytical column was a Waters […], 2.1 mm×20 mm column. The mass analyzer was a Waters ZQ, single quadrupole mass spectrometer equipped with an electrospray ionization source operating in the positive ionization mode and utilizing a stainless steel spray capillary. […]

[4] = system: rats; test: In vivo functional observational battery (FOB); details: for Behavior: 1 mg/kg
[5] = 3 mg/kg, 0.5 h after administration
[6] = 3 mg/kg, 1 h after administration
[7] = 3 mg/kg, 2 h after administration
[8] = 3 mg/kg, 4 h after administration
[9] = 3 mg/kg, 6 h after administration
[10] = 300 mg/kg, 0.5 h after administration
[11] = 300 mg/kg, 1 h after administration
[12] = 300 mg/kg, 2 h after administration
[13] = 300 mg/kg, 4 h after administration
[14] = 300 mg/kg, 6 h after administration

O=C(O)c1nc2ccccc2n([C@H]2C[C@H]3CCC[C@@H](C2)N3C2CC3CCCC(C3)C2)c1=O (stereo partly shown) [Compound (1D)]
Average % Elimination, Fecal ([1]; Rat (female)): 27.9% | Average % Elimination, Fecal + Urinary ([1]; Rat (female)): 94.7% | Average % Elimination, Urinary ([1]; Rat (female)): 66.8% | Average % Elimination, Fecal ([1]; Rat (male)): 41.6% | Average % Elimination, Fecal + Urinary ([1]; Rat (male)): 96.0% | Average % Elimination, Urinary ([1]; Rat (male)): 54.4% | overall sleep effect ([2]; 30 mg/kg/day oral): significant sleep-enhancing effects | tachyphylaxis over the seven day period ([2]; 30 mg/kg/day oral for 7 days): minimal tachyphylaxis | percentage of time spent in wakefulness ([2]; 30 mg/kg/day oral, Day 1, 1 hour block at 4 hours after dosing (FIG. 5A)): about 52% | percentage of time spent in NREM sleep ([2]; 30 mg/kg/day oral, Day 1, 1 hour block at 4 hours after dosing (FIG. 5C)): about 41% | percentage of time spent in NREM sleep ([2]; 30 mg/kg/day oral, Day 1, 1 hour block at 5 hours after dosing (FIG. 5C)): ~54% | percentage of time spent in REM sleep ([2]; 30 mg/kg/day oral, Day 1, 1 hour block at 7 hours after dosing (FIG. 5B)): about 2.5% | total amount of wakefulness ([2]; 30 mg/kg/day oral, Day 1, 3 hour block, 3 to 6 hours after dosing (FIG. 6A)): about 47% | total amount of NREM sleep ([2]; 30 mg/kg/day oral, Day 1, 3 hour block, 3 to 6 hours after dosing (FIG. 6C)): about 46% | effect on percentage of time spent in REM sleep ([2]; 30 mg/kg/day oral, Day 1, 3 hour blocks (FIG. 6B)): no significant effects | effect on percentage of time spent in REM sleep ([2]; 30 mg/kg/day oral, Day 4 (FIG. 7B, 8B)): no significant effects | total amount of wakefulness ([2]; 30 mg/kg/day oral, Day 4, 3 to 6 hours after dosing (FIG. 8A)): about 55% | total amount of NREM sleep ([2]; 30 mg/kg/day oral, Day 4, 3 to 6 hours after dosing (FIG. 8C)): about 41% | percentage of time spent in NREM sleep ([2]; 30 mg/kg/day oral, Day 4, 1 hour block at 4 hours after dosing (FIG. 7C)): about 42% | effect on percentage of time spent in REM sleep ([2]; 30 mg/kg/day oral, Day 7 (FIG. 9B, 10B)): no significant effects | percentage of time spent in wakefulness versus vehicle ([2]; 30 mg/kg/day oral, Day 7, lights-out period (FIG. 9A)): decreasing tendency | percentage of time spent in NREM sleep versus vehicle ([2]; 30 mg/kg/day oral, Day 7, lights-out period (FIG. 9C)): increased tendency | effect on time spent in REM sleep ([2]; Day 8 (no dosing) after 30 mg/kg/day for 7 days (FIG. 11B)): no effect | percentage of time spent in wakefulness versus vehicle ([2]; Day 8 (no dosing) after 30 mg/kg/day for 7 days, at 27, 35, and 46 hours (FIG. 11A)): significantly increased | percentage of time spent in NREM sleep versus vehicle ([2]; Day 8 (no dosing) after 30 mg/kg/day for 7 days, at 27, 35, and 46 hours (FIG. 11C)): significantly decreased

CNC(=O)Cn1c(=O)n(C2CCN([C@@H]3Cc4cccc5cccc3c45)CC2)c2ccccc21 [Compound W-212393]
brain penetration relative to average of Compound (1C) (0.5/0.033): at least 15 times | brain penetration relative to maximum value of Compound (1C) (0.5/0.040): at least 13 times | Human Metabolic Stability (%) [3]: 27.3% | Behavior ([4]; 0.5 h after administration): N | Behavior ([4]; 1 h after administration): N | Behavior ([4]; 2 h after administration): N | Behavior ([4]; 4 h after administration): N | Behavior ([4]; 6 h after administration): N | Biting behavior [4, 5]: N | Hvpoactivity [4, 5]: N | Jumping [4, 5]: N | Biting behavior [4, 6]: 1 of 6 | Hvpoactivity [4, 6]: 6 of 6 | Jumping [4, 6]: 3 of 6 | Biting behavior [4, 7]: N | Hvpoactivity [4, 7]: N | Jumping [4, 7]: 2 of 6 | Biting behavior [4, 8]: N | Hvpoactivity [4, 8]: N | Jumping [4, 8]: N | Biting behavior [4, 9]: N | Hvpoactivity [4, 9]: N | Jumping [4, 9]: N | Abdominal position/side lying position [4, 10]: 6 of 6 | Biting behavior [4, 10]: 3 of 6 | Decreased muscle tone [4, 10]: 6 of 6 | Jumping [4, 10]: 2 of 6 | Loss of auricular reflex/righting reflex [4, 10]: 6 of 6 | Loss of flexed or extension reflex [4, 10]: 6 of 6 | Loss of pain reaction [4, 10]: 6 of 6 | Respiratory irregularity [4, 10]: 6 of 6 | Abdominal position/side lying position [4, 11]: 6 of 6 | Biting behavior [4, 11]: N | Decreased muscle tone [4, 11]: 6 of 6 | Jumping [4, 11]: N | Loss of auricular reflex/righting reflex [4, 11]: 6 of 6 | Loss of flexed or extension reflex [4, 11]: 6 of 6 | Loss of pain reaction [4, 11]: 6 of 6 | Respiratory irregularity [4, 11]: 6 of 6 | Abdominal position/side lying position [4, 12]: 6 of 6 | Biting behavior [4, 12]: N | Decreased muscle tone [4, 12]: 6 of 6 | Jumping [4, 12]: N | Loss of auricular reflex/righting reflex [4, 12]: 6 of 6 | Loss of flexed or extension reflex [4, 12]: 6 of 6 | Loss of pain reaction [4, 12]: 6 of 6 | Respiratory irregularity [4, 12]: 6 of 6 | Abdominal position/side lying position [4, 13]: 6 of 6 | Biting behavior [4, 13]: N | Decreased muscle tone [4, 13]: 6 of 6 | Jumping [4, 13]: N | Loss of auricular reflex/righting reflex [4, 13]: 6 of 6 | Loss of flexed or extension reflex [4, 13]: 6 of 6 | Loss of pain reaction [4, 13]: 6 of 6 | Respiratory irregularity [4, 13]: 6 of 6 | Abdominal position/side lying position [4, 14]: 6 of 6 | Biting behavior [4, 14]: N | Decreased muscle tone [4, 14]: 6 of 6 | Jumping [4, 14]: N | Loss of auricular reflex/righting reflex [4, 14]: 6 of 6 | Loss of flexed or extension reflex [4, 14]: 6 of 6 | Loss of pain reaction [4, 14]: 6 of 6 | Respiratory irregularity [4, 14]: 6 of 6
